Data reported in the NIST ThermoML archive (doi:10.1021/je060271a).
Values joined by “and” are separate entries in the source; they are usually repeats but may differ in a detail not shown here. Identical values can stand only once.

Conditions: 303.15 K, Liquid, Vibrating tube method

CCCCCC(=O)OCC(COC(=O)CCCCC)(COC(=O)CCCCC)COC(=O)CCCCC [pentaerythritol tetrahexanoate]
Conditions | mass density
17124 kPa | 999 kg/m3
17144 kPa | 998.9 kg/m3
17164 kPa | 998.9 kg/m3
17186 kPa | 998.9 kg/m3
17201 kPa | 998.9 kg/m3
17216 kPa | 998.9 kg/m3
17229 kPa | 999.1 kg/m3
17243 kPa | 999 kg/m3
17245 kPa | 999 kg/m3
17247 kPa | 999.1 kg/m3
17248 kPa | 999.1 kg/m3
17250 kPa | 999.1 kg/m3
17251 kPa | 999 kg/m3
17252 kPa | 999 kg/m3
17253 kPa | 999 kg/m3
17254 kPa | 999.1 kg/m3
17256 kPa | 999 kg/m3
17265 kPa | 999 kg/m3
17267 kPa | 999.1 kg/m3
17272 kPa | 999 kg/m3
17282 kPa | 999 kg/m3
17286 kPa | 999 kg/m3
17289 kPa | 999 kg/m3
17290 kPa | 998.9 kg/m3 and 999 kg/m3
17296 kPa | 999.1 kg/m3
17310 kPa | 999.2 kg/m3
17330 kPa | 999.1 kg/m3
17334 kPa | 999.1 kg/m3
17348 kPa | 999.1 kg/m3
17353 kPa | 999 kg/m3
17354 kPa | 999.2 kg/m3
17377 kPa | 999.2 kg/m3
17400 kPa | 999.1 kg/m3
17428 kPa | 999.2 kg/m3
17452 kPa | 999.1 kg/m3
17475 kPa | 999.3 kg/m3
17503 kPa | 999.1 kg/m3
17526 kPa | 999.1 kg/m3
17550 kPa | 999.3 kg/m3
17577 kPa | 999.3 kg/m3
17917 kPa | 999.3 kg/m3
17939 kPa | 999.5 kg/m3
17961 kPa | 999.4 kg/m3
17988 kPa | 999.5 kg/m3
18010 kPa | 999.4 kg/m3
18037 kPa | 999.5 kg/m3
18060 kPa | 999.6 kg/m3
18083 kPa | 999.5 kg/m3
18105 kPa | 999.5 kg/m3
18132 kPa | 999.4 kg/m3
18155 kPa | 999.6 kg/m3
18178 kPa | 999.7 kg/m3
18205 kPa | 999.6 kg/m3
18228 kPa | 999.6 kg/m3
18256 kPa | 999.6 kg/m3
18279 kPa | 999.6 kg/m3
18302 kPa | 999.6 kg/m3
18325 kPa | 999.7 kg/m3
18353 kPa | 999.6 kg/m3
18377 kPa | 999.8 kg/m3
18400 kPa | 999.7 kg/m3
18428 kPa | 999.7 kg/m3
18452 kPa | 999.6 kg/m3
18476 kPa | 999.8 kg/m3
18504 kPa | 999.8 kg/m3
18528 kPa | 999.8 kg/m3
18551 kPa | 999.7 kg/m3
18580 kPa | 999.9 kg/m3
18604 kPa | 1000 kg/m3
18628 kPa | 1000 kg/m3
18657 kPa | 999.8 kg/m3
18917 kPa | 1000 kg/m3
18943 kPa | 1000 kg/m3
18968 kPa | 999.9 kg/m3
18998 kPa | 1000 kg/m3
19024 kPa | 1000 kg/m3
19049 kPa | 1000.2 kg/m3
19074 kPa | 1000 kg/m3
19104 kPa | 1000.1 kg/m3
19128 kPa | 1000 kg/m3
19154 kPa | 1000.1 kg/m3
19177 kPa | 1000.1 kg/m3
19199 kPa | 1000.2 kg/m3
19226 kPa | 1000.2 kg/m3
19249 kPa | 1000.3 kg/m3
19273 kPa | 1000.2 kg/m3
19296 kPa | 1000.3 kg/m3
19323 kPa | 1000.1 kg/m3
19346 kPa | 1000.2 kg/m3
19374 kPa | 1000.3 kg/m3
19397 kPa | 1000.3 kg/m3
19420 kPa | 1000.3 kg/m3
19443 kPa | 1000.3 kg/m3
19471 kPa | 1000.3 kg/m3
19495 kPa | 1000.2 kg/m3
19518 kPa | 1000.3 kg/m3
19546 kPa | 1000.4 kg/m3
19570 kPa | 1000.4 kg/m3
19595 kPa | 1000.3 kg/m3
19618 kPa | 1000.4 kg/m3
19642 kPa | 1000.4 kg/m3
19670 kPa | 1000.4 kg/m3
19694 kPa | 1000.4 kg/m3
19718 kPa | 1000.6 kg/m3
19747 kPa | 1000.4 kg/m3
19771 kPa | 1000.5 kg/m3
19795 kPa | 1000.5 kg/m3
19824 kPa | 1000.4 kg/m3
19849 kPa | 1000.5 kg/m3
19873 kPa | 1000.6 kg/m3
19904 kPa | 1000.6 kg/m3
19928 kPa | 1000.6 kg/m3
19952 kPa | 1000.6 kg/m3
19977 kPa | 1000.5 kg/m3
20006 kPa | 1000.7 kg/m3
20031 kPa | 1000.6 kg/m3
20056 kPa | 1000.7 kg/m3
20081 kPa | 1000.6 kg/m3
20111 kPa | 1000.7 kg/m3
20136 kPa | 1000.8 kg/m3
20162 kPa | 1000.8 kg/m3
20192 kPa | 1000.7 kg/m3
20217 kPa | 1000.9 kg/m3
20248 kPa | 1000.8 kg/m3
20274 kPa | 1000.8 kg/m3
20299 kPa | 1000.9 kg/m3
20324 kPa | 1000.8 kg/m3
20350 kPa | 1000.8 kg/m3
20381 kPa | 1000.8 kg/m3
20406 kPa | 1000.9 kg/m3
20432 kPa | 1000.9 kg/m3
20463 kPa | 1000.9 kg/m3
20489 kPa | 1000.9 kg/m3
20515 kPa | 1000.8 kg/m3
20547 kPa | 1000.9 kg/m3
20573 kPa | 1001 kg/m3
20600 kPa | 1000.9 kg/m3
20627 kPa | 1001 kg/m3
20658 kPa | 1001 kg/m3
20685 kPa | 1001.1 kg/m3
20716 kPa | 1001 kg/m3
20743 kPa | 1001 kg/m3
20770 kPa | 1001 kg/m3
20797 kPa | 1001 kg/m3
20829 kPa | 1001 kg/m3
